According to patent US20020028938A1, “Prostaglandin endoperoxide H synthase biosynthesis inhibitors” (priority 1997, published 2002):

Legend:
[1] = molecular target: T1, recombinant human Cox-1 (r-hu Cox1) (Homo sapiens, UniProt P23219); assay: Recombinant human PGHS-1 enzyme assay (RHUCX1); type: biochemical
T1 construct: made in house; host or cells: baculovirus/Sf9 insect cells (microsomes)
Protocol: (§1) To compare the mean responses of the treatment groups, analysis of variance was applied. Percent inhibition values were determined by comparing the individual treatment mean values to the mean of the control group. Linear regression was used to estimate IC50's/ED50's in appropriate assays.
(§2) EIA reagents for prostaglandin determination were purchased from Perseptive Diagnostics, (Cambridge, Mass.). Prostaglandin E2 (PGE2) levels in lavage fluids were determined after the samples were dried under nitrogen and reconstituted with assay buffer. PGE2 levels in enzyme assays or cell culture media were measured against standards prepared in the same milieu. The immunoassays were conducted as recommended by the manufacturer. The EIA was conducted in 96 well microtiter plates (Nunc Roskilde, Denmark) and optical density was measured using a microplate reader (Vmax, Molecular Devices Corp., Menlo Park, Calif.).
(§3) Inhibition of prostaglandin biosynthesis in vitro was evaluated using recombinant human Cox-1 (r-hu Cox1) and Cox-2 (r-hu Cox-2) enzyme assays. […] The reaction was allowed to run for 2.5 minutes at room temperature prior to quenching with HCl and neutralization with NaOH. PGE2 production in the presence and absence of the drug was determined by EIA analysis. The EIA was conducted in 96 well microtiter plates (Nunc Roskilde, Denmark) and optical density was measured using a microplate reader (Vmax, Molecular Devices Corp., Menlo Park, Calif.). EIA reagents for prostaglandin determination were purchased from Perseptive Diagnostics (Cambridge, Mass.). PGE2 levels were measured against standards prepared in the same milieu. The immunoassays were conducted as recommended by the manufacturer.

[2] = molecular target: T2, recombinant human Cox-2 (r-hu Cox-2) (Homo sapiens, UniProt P35354); assay: Recombinant human PGHS-2 enzyme assay (RHUCX2); type: biochemical; conditions: for IC50: read-out: RHUCX2 IC50 (parenthetical value); for inhibition at 0.1 µM / inhibition at 1 µM: read-out: RHUCX2 % Inh. at Dose
T2 construct: made in house; host or cells: baculovirus/Sf9 insect cells (microsomes)
T2 sequence (P35354 18-604): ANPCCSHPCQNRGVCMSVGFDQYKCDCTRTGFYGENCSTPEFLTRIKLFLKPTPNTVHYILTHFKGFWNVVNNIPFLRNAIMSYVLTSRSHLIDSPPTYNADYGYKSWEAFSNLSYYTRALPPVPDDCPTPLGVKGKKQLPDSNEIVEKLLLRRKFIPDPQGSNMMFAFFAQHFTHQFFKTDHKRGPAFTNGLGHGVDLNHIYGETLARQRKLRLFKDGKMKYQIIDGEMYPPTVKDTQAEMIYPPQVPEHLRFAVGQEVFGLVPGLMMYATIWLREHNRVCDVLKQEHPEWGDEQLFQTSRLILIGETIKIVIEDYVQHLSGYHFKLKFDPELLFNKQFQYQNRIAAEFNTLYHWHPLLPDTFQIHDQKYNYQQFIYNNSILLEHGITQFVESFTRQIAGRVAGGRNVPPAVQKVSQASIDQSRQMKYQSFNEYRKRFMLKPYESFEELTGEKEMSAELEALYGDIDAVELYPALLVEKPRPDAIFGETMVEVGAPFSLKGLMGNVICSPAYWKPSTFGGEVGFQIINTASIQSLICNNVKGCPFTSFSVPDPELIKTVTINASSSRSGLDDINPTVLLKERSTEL
Protocol: as §1, §2, §3

[3] = 100 μM, read-out: RHUCX1 % Inh. at Dose

T1 sequence (P23219 24-599): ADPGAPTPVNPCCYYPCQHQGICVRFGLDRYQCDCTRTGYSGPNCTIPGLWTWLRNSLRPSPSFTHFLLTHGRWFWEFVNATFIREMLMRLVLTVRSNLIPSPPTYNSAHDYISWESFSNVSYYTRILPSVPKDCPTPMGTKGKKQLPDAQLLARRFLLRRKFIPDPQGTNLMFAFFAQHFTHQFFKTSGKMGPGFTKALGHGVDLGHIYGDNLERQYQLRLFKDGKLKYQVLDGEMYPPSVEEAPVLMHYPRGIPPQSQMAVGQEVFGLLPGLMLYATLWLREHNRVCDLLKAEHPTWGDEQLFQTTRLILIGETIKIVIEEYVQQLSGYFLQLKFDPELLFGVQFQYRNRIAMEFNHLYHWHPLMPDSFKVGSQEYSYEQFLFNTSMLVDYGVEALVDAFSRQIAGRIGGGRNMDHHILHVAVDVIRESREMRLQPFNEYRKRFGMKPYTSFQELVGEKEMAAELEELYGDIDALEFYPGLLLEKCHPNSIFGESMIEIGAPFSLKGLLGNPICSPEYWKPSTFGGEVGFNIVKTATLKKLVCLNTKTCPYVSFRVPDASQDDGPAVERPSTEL

Molecule	inhibition at 100 µM [1, 3] [%]	IC50 [2] [nM]	RHUCX1 % Inh. at Dose (μM) ([1]; 100 μM)	RHUCX2 % Inh. at Dose (μM) ([2]; 0.1 μM)	RHUCX2 % Inh. at Dose (μM) ([2]; 1 μM)	further results
CS(=O)(=O)c1ccc(-c2cnn(-c3ccc(F)cc3)c(=O)c2Cc2ccccc2)cc1 [Example 230, 2-(4-Fluorophenyl)-4-benzyl-5-[4-(methylsulfonyl)phenyl]-3(2H)-pyridazinone]	4	215	–	–	–	melting point: 180 to 182 °C
CS(=O)(=O)c1ccc(-c2cnn(C3Cc4ccccc4C3)c(=O)c2-c2ccc(F)cc2)cc1 [Example 128, 2-(2,3-Dihydro-1H-inden-2-yl)-4-(4-fluorophenl)-5-[4-(methylsulfonyl)phenyl]-3(2H)-pyridazinone]	14	477	–	–	–	melting point: 97 to 100 °C
Cc1cc(-c2c(-c3ccc(S(N)(=O)=O)cc3)cnn(-c3ccc(F)c(F)c3)c2=O)ccc1F [Example 402, 2-(3,4-Difluorophenyl)-4-(4-fluoro-3-methylphenyl)-5-[4-(aminosulfonyl)phenyl]-3(2H)-pyridazinone]	–	221	–	–	–	inhibition at 1 µM ([1]; 1 μM, read-out: RHUCX1 % Inh. at Dose): 89%; melting point: 243 to 245 °C
CS(=O)(=O)c1ccc(-c2cnn(CC=C(Cl)Cl)c(=O)c2-c2ccc(F)cc2)cc1 [Example 35]	–	17	–	–	–	inhibition at 10 µM ([1]; 10 μM, read-out: RHUCX1 % Inh. at Dose): 34%; melting point: 150 to 152 °C
CS(=O)(=O)c1ccc(-c2cnn(-c3ccc(F)c(F)c3)c(=O)c2C2CCCCC2)cc1 [Example 232, 2-(3,4-Difluorophenyl)-4-cyclohexyl-5-[4-(methylsulfonyl)phenyl]-3(2H)-pyrdazinone]	23	24	–	–	–	melting point: 80 to 83 °C
Cc1ccc(-c2c(-c3ccc(S(C)(=O)=O)cc3)cnn(-c3ccc(F)c(F)c3)c2=O)cc1F [Example 371, 2-(3,4-Difluorophenyl)-4-(3-fluoro-4-methylphenyl)-5-[4-(methylsulfonyl)phenyl]-3(2H)-pyridazinone]	8	166	–	–	–	melting point: 204 to 206 °C
CS(=O)(=O)c1ccc(-c2cnn(Cc3ccccc3C(F)(F)F)c(=O)c2-c2ccc(F)cc2)cc1 [Example 25, 2-(2-Trifluoromethylbenzyl)-4-(4-fluorophenyl)-5-[4-(methylsulfonyl)phenyl]-3(2H)-pyridazinone]	1	–	–	–	–	inhibition at 0.1 µM ([2]; 0.1 μM): 66%; inhibition at 1 µM ([2]; 1 μM): 93%; melting point: 87 to 90 °C
CS(=O)(=O)c1ccc(-c2cnn(CC(F)(F)F)c(=O)c2SC2CCCC2)cc1 [Example 283]	–	–	0 @ 100%	54 @ 0.1%	71 @ 1%	RHUCX2 % Inh. at Dose (μM) ([2]; 10 μM): 90 @ 10%
CC(C)=CCOc1c(-c2ccc(S(C)(=O)=O)cc2)cnn(-c2ccc(F)cc2)c1=O [Example 422]	–	–	53 @ 100%	37 @ 0.1%	52 @ 1%	RHUCX1 % Inh. at Dose (μM) ([1]; 1 μM): 76 @ 1%; RHUCX1 % Inh. at Dose (μM) ([1]; 10 μM): 82 @ 10%
Cc1ccc(-c2c(-c3ccc(S(C)(=O)=O)cc3)cnn(CC(F)(F)F)c2=O)cc1F [Example 219, 2-(2,2,2-Trifluoroethyl)-4-(3-fluoro-4-methylphenyl)-5-[4-(methylsulfonyl)phenyl]-3(2H)-pyridazinone]	20	–	–	–	–	inhibition at 0.1 µM ([2]; 0.1 μM): 75%; inhibition at 1 µM ([2]; 1 μM): 90%
CS(=O)(=O)c1ccc(-c2cnn(CC(F)(F)F)c(=O)c2Oc2cc(C(F)(F)F)ccc2F)cc1 [Example 263, 2-(2,2,2-Trifluoroethyl)-4-(2-fluoro-5-trifluoromethylphenoxy)-5-[4-(methylsulfonyl)phenyl]-3(2H)-pridazinone]	–	–	1 @ 100%	53 @ 0.1%	76 @ 1%	RHUCX2 % Inh. at Dose (μM) ([2]; 10 μM): 85 @ 10%
NS(=O)(=O)c1ccc(-c2cnn(-c3cccc(Cl)c3)c(=O)c2CCc2ccccc2)cc1 [Example 393, 2-(3-Chlorophenyl)-4-(phenethyl)-5-[4-(aminosulfonyl)phenyl]-3(2H)-pyridazinone]	15	–	–	–	–	inhibition at 0.1 µM ([2]; 0.1 μM): 58%; inhibition at 1 µM ([2]; 1 μM): 85%
CS(=O)(=O)c1ccc(-c2cnn(CC(F)(F)F)c(=O)c2-c2ccc(C(F)(F)F)cc2)cc1 [Example 213, 2-(2,2,2-Trifluoroethyl)-4-(4-trifluoromethylphenyl)-5-[4-(methylsulfonyl)phenyl]-3(2H)-pridazinone]	0	812	–	–	–	–
C#CCn1ncc(-c2ccc(S(C)(=O)=O)cc2)c(-c2ccc(F)cc2)c1=O [Example 48, 2-(Propargyl)-4-(4-fluorophenyl)-5-[4-(methylsulfonyl)phenyl]-3(2H)-prridazinone]	–	–	0 @ 100%	2 @ 0.1%	73 @ 1%	–
2-(2-Hexyl)-4-(4-fluorophenyl)-5-[4-(methylsulfonyl)phenyl]-3(2H)-pyridazinone [Example 118]	–	–	31 @ 100%	72 @ 0.1%	–	RHUCX2 % Inh. at Dose (μM) ([2]; 0.01 μM): 17 @ 0.01%
CN(Cc1ccccc1)c1c(-c2ccc(S(C)(=O)=O)cc2)cnn(-c2cccc(Cl)c2)c1=O [Example 354, 2-(3-Chlorophenyl)-4-(N-methylbenzylamnino)-5-[4-(methylsulfonyl)phenyl]-3(2H)-pyridazinone]	–	–	∠@ 100	36 @ 0.1%	45 @ 1%	RHUCX2 % Inh. at Dose (μM) ([2]; 10 μM): 45 @ 10%
CC1CCC(n2ncc(-c3ccc(S(C)(=O)=O)cc3)c(-c3ccc(F)cc3)c2=O)C1 (stereo not drawn) [Example 133]	–	358	23 @ 100%	–	–	–
Cc1ccc(-c2c(-c3ccc(S(N)(=O)=O)cc3)cnn(-c3ccc(F)cc3)c2=O)cc1F [Example 387]	–	–	–	65 @ 0.1%	76 @ 1%	RHUCX1 % Inh. at Dose (μM) ([1]; 1 μM): 60 @ 1%; RHUCX1 % Inh. at Dose (μM) ([1]; 10 μM): 57 @ 10%; RHUCX2 % Inh. at Dose (μM) ([2]; 0.01 μM): 56 @ 0.01%
CS(=O)(=O)c1ccc(-c2cnn(-c3ccoc3)c(=O)c2-c2ccc(F)cc2)cc1 [Example 183, 2-(3-Furyl)-4-(4-fluorophenyl)-5-[4-(methylsulfonyl)phenyl]-3(2H)-pyrdazinone]	–	–	25 @ 100%	51 @ 0.1%	97 @ 1%	–
CS(=O)(=O)c1ccc(-c2cnn(-c3csc4ccccc34)c(=O)c2-c2ccc(F)cc2)cc1 [Example 107]	–	–	–	36 @ 0.1%	86 @ 1%	RHUCX1 % Inh. at Dose (μM) ([1]; 1 μM): 50 @ 1%; RHUCX1 % Inh. at Dose (μM) ([1]; 10 μM): 88 @ 10%
CC(C)CCOc1c(-c2ccc(S(N)(=O)=O)cc2)cnn(-c2ccc(F)cc2)c1=O [Example 398, 2-(4-Fluorophenyl)-4-(3-methylbutoxy)-5-[4-(aminosulfonyl)phenyl]-3(2H)-pyrdazinone]	26	202	–	–	–	–
CS(=O)(=O)c1ccc(-c2cnn(-c3ccc(F)c(F)c3)c(=O)c2-c2cccs2)cc1 [Example 237, 2-(3,4-Difluorophenyl)-4-(2-thienyl)-5-[4-(methylsulfonyl)phenyl]-3(2H)-pridazinone]	–	–	–	89 @ 0.1%	–	RHUCX1 % Inh. at Dose (μM) ([1]; 1 μM): 44 @ 1%; RHUCX1 % Inh. at Dose (μM) ([1]; 10 μM): 54 @ 10%
CS(=O)(=O)c1ccc(-c2cnn(CC(F)(F)F)c(=O)c2OCCN2CCOCC2)cc1 [Example 273]	–	–	16 @ 100%	–	42 @ 1%	RHUCX2 % Inh. at Dose (μM) ([2]; 10 μM): 54 @ 10%
2-(3-Chlorophenyl)-4-(cyclopentylmethyl)-5-[4-(methylsulfonyl)phenyl]-3(2H)-pyridazinone [Example 364]	–	–	0 @ 100%	0 @ 0.1%	86 @ 1%	–
